Experimental data published in patent US9951001B2 (Acorda Therapeutics, Inc., priority 2008, dated 2018).
Values after ≈ are worked out from the molar mass of the structure shown. Counter-ions that a name gives are not always drawn. Like-named read-outs stand apart in the source and are kept apart here.

Tests used:
[1] = physchem; conditions: for solubility: water, Solubility in water at room temperature
Procedure: To a stirred colorless solution of (S)-4-acetamidophenyl 2-(tert-butoxycarbonylamino)-4-(methylthio)butanoate (0.5 g, 1.3 mmol) in dioxane (10 mL) was added 40 mL of HCl in dioxane (4M).

[2] = tested on: C57BL6 mice; experiment: Acute acetaminophen-induced hepatotoxicity in mice (plasma ALT and AST)
Procedure: Hepatotoxicity was evaluated by measuring standard plasma enzymatic markers (Alanine transaminase (ALT) and Aspartate transaminase (AST)) of liver damage.

[3] = cited from earlier work

SMILES	melting point [°C]	solubility [1] [mg/mL]	further results
CC(=O)Nc1ccc(OC(=O)C(N)CSSCC(N)C(=O)O)cc1.Cl.Cl (centres unmarked)	230 to 237		
CSCC[C@H](N)C(=O)Oc1ccc(NC(C)=O)cc1 (as salt: HCl) [Compound (II-A), (S)-4-acetamidophenyl 2-amino-4-(methylthio)butanoate]	225 to 228		
CC(=O)Nc1ccc(OC(=O)C(N)CSSCC(N)C(=O)Oc2ccc(NC(C)=O)cc2)cc1 (centres unmarked) (as salt: trifluoroacetate) [Example 4, bis(4-acetamidophenyl)3,3′-disulfanediylbis(2-aminopropanoate)di(trifluoroacetate)]	> 300		
CC(=O)Nc1ccc(O)cc1 [Acetaminophen, N-(4-hydroxyphenyl)acetamide]		~14.3 (≈ 94.6 mM)	Treated mice with elevated ALT levels ([2]; mouse, in vivo): 83%; Treated mice with increased AST levels ([2]; mouse, in vivo): all
CSCC[C@H](N)C(=O)Oc1ccc(NC(C)=O)cc1 [Compound (II-A), (S)-4-acetamidophenyl 2-amino-4-(methylthio)butanoate]		500 (≈ 1770 mM)	
CC(=O)Nc1ccc(OC(=O)C(N)CSSCC(NC(C)=O)C(=O)O)cc1 (centres unmarked) [Compound II-D sodium salt, 2-acetamido-3-((3-(4-acetamidophenoxy)-2-amino-3-oxopropyl)disulfanyl)propanoic acid]			Solubility in water at room temperature [1]: 52 mg/mL
CC(=O)Nc1ccc(OC(=O)C(CSSCC(NC(C)=O)C(=O)O)NC(C)=O)cc1 (centres unmarked) [Example 2, 2-acetamido-3-((2-acetamido-3-(4-acetamidophenoxy)-3-oxopropyl)disulfanyl)propanoic acid]	95 to 99		
CC(=O)Nc1ccc(OC(=O)C(N)CSSCC(NC(C)=O)C(=O)O)cc1 (centres unmarked) [II-D, 2-acetamido-3-((3-(4-acetamidophenoxy)-2-amino-3-oxopropyl)disulfanyl)propanoic acid]		47 (≈ 113 mM)	
O=C1N[C@H](C(=O)O)CS1 [L-2-oxothiazolidine-4-carboxylate]			GSH tissue levels ([3]; administered 30 minutes post-acetaminophen administration): 6.1 μmol/g of tissue; GSH tissue levels ([3]; administered 120 minutes post-acetaminophen administration): 5.3 μmol/g of tissue
CSCC[C@H](N)C(=O)O [l-methionine]			AST and ALT increases in acetaminophen-treated animals ([2]; co-administration of equimolar doses of l-methionine and acetaminophen): significantly reduced; Serum AST and ALT levels ([2]; oral l-methionine alone (167 mg/kg)): did not affect
